What was measured:
human recombinant HDAC1 = target: T1, human recombinant HDAC1 (Homo sapiens, UniProt Q13547); experiment: HDAC enzyme activity inhibition assay (HDAC Fluorimetric Drug Discovery Kit), HDAC1; type: biochemical; settings: human recombinant HDAC1, Fluor de Lys-SIRT1 substrate, 30° C. 60 minutes
T1 construct: purchased Enzo Life Sciences, Inc. BML-SE456
Outline: (§1)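 The preceding reaction ran 60 min at 30 °C with 0.3 μg recombinant human enzyme, HDAC1 or HDAC6 under an identical protocol, and 10 μM Fluor de Lys-SIRT1 substrate, across 5-fold diluted compound.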

human recombinant HDAC6 = target: T2, human recombinant HDAC6 (Homo sapiens, UniProt Q9UBN7); experiment: HDAC enzyme activity inhibition assay (HDAC Fluorimetric Drug Discovery Kit), HDAC6; type: biochemical; settings: for HDAC6 selectivity (fold): HDAC1 vs HDAC6; for IC50: human recombinant HDAC6, same protocol as HDAC1
T2 construct: purchased Calbiochem Inc. 382180
T2 sequence (Q9UBN7 1-1215): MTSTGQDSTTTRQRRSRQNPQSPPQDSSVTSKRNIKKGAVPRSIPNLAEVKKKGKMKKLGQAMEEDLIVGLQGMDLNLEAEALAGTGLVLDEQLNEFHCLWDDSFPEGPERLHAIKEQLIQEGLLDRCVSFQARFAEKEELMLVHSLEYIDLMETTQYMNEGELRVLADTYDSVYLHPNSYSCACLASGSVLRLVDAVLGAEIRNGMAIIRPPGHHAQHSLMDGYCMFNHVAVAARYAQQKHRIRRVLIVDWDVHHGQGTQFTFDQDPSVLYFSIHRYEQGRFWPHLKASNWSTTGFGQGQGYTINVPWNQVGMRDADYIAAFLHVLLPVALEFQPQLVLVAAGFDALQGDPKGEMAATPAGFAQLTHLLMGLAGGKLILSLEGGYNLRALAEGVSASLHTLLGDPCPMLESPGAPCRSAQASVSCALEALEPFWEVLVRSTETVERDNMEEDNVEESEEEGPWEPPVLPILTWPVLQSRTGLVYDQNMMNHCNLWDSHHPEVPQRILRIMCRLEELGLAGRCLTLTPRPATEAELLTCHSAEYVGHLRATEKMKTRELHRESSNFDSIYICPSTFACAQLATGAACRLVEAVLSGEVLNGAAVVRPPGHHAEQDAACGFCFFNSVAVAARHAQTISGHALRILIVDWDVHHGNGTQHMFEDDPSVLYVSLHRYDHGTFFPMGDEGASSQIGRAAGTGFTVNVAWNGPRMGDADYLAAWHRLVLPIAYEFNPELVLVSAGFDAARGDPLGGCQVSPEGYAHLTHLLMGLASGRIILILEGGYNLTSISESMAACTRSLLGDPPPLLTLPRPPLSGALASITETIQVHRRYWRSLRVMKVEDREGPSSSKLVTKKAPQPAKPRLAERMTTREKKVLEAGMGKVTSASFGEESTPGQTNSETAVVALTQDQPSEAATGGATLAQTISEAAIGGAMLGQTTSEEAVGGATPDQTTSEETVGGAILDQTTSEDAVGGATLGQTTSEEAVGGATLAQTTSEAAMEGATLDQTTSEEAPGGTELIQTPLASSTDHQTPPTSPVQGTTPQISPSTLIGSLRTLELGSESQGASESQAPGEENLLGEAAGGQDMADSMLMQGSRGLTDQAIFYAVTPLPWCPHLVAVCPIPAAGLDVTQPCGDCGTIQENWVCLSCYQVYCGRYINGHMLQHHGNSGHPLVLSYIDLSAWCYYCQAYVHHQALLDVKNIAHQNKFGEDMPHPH
Outline: as §1

T1 sequence (Q13547 whole entry): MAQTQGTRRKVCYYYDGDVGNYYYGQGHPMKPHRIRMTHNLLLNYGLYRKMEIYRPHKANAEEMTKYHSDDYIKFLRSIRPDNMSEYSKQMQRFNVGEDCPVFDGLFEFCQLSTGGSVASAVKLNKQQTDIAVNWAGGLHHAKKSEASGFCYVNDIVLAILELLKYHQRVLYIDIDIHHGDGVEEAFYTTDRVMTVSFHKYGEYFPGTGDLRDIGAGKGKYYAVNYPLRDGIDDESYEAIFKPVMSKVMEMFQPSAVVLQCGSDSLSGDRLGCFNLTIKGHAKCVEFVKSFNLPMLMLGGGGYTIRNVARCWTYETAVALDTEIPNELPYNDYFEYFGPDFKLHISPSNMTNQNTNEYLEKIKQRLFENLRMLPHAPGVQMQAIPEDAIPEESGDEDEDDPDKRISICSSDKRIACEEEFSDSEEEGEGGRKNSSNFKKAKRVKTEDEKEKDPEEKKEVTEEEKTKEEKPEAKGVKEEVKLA

IC50 (human recombinant HDAC1) [nM]	HDAC6 selectivity (fold) (human recombinant HDAC6)	IC50 (human recombinant HDAC6) [nM]	SMILES
30900	421 fold	73.4	CN1CC(F)(C(=O)N(Cc2ccc(-c3nnc(C(F)F)o3)cc2F)c2ccccc2)C1 [Compound 3429, N-(4-(5-(difluoromethyl)-1,3,4-oxadiazol-2-yl)-2-fluorobenzyl)-3-fluoro-1-methyl-N-phenylazetidine-3-carboxamide]
> 50000	544 fold	91.8	CC(C)N1CC(F)(C(=O)N(Cc2ccc(-c3nnc(C(F)F)o3)cc2F)c2ccccc2)C1 [Compound 3431, N-(4-(5-(difluoromethyl)-1,3,4-oxadiazol-2-yl)-2-fluorobenzyl)-3-fluoro-1-isopropyl-N-phenylazetidine-3-carboxamide]
28500	1,361 fold	20.9	CCCCN1CC(N2CCC(F)(C(=O)N(Cc3ccc(-c4nnc(C(F)F)o4)cn3)c3cccc(F)c3)CC2)C1 [Compound 3391, 1-(1-butylazetidine-3-yl)-N-((5-(5-(difluoromethyl)-1,3,4-oxadiazol-2-yl)pyridin-2-yl)methyl)-4-fluoro-N-(3-fluorophenyl)piperidine-4-carboxamide]
21600	392 fold	55	O=C(N(Cc1ccc(-c2nnc(C(F)F)o2)cn1)c1cccc(F)c1)C1(F)CN(C2CCC2)C1 [Compound 3049, 1-cyclobutyl-N-((5-(5-(difluoromethyl)-1,3,4-oxadiazol-2-yl)pyridin-2-yl)methyl)-3-fluoro-N-(3-fluorophenyl)azetidine-3-carboxamide]
34700	1,343 fold	25.8	O=C(N(Cc1ccc(-c2nnc(C(F)F)o2)cn1)c1cccc(F)c1)C1(F)CN(C2CCN(C3CCOCC3)CC2)C1 [Compound 3410, N-((5-(5-(difluoromethyl)-1,3,4-oxadiazol-2-yl)pyridin-2-yl)methyl)-3-fluoro-N-(3-fluorophenyl)-1-(1-(tetrahydro-2H-pyran-4-yl)piperidin-4-yl)azetidine-3-carboxamide]
> 50000	1,612 fold	31	CN(C)CCC(=O)N1CC(F)(C(=O)N(Cc2ccc(-c3nnc(C(F)F)o3)cn2)c2cccc(F)c2)C1 [Compound 3097, N-((5-(5-(difluoromethyl)-1,3,4-oxadiazol-2-yl)pyridin-2-yl)methyl)-1-(3-(dimethylamino)propanoyl)-3-fluoro-N-(3-fluorophenyl)azetidine-3-carboxamide]

More lines, now with the values behind:

SMILES	IC50 (human recombinant HDAC1) [nM]	HDAC6 selectivity (fold) (human recombinant HDAC6)	IC50 (human recombinant HDAC6) [nM]
CCCN1CC(N2CCC(F)(C(=O)N(Cc3ccc(-c4nnc(C(F)F)o4)cn3)c3cccc(F)c3)CC2)C1 [Compound 3390, N-((5-(5-(difluoromethyl)-1,3,4-oxadiazol-2-yl)pyridin-2-yl)methyl)-4-fluoro-N-(3-fluorophenyl)-1-(1-propylazetidine-3-yl)piperidin-4-carboxamide]	24200	1,015 fold	23.8
CCC(=O)N1CC(F)(C(=O)N(Cc2ccc(-c3nnc(C(F)F)o3)cc2F)c2ccccc2)C1 [Compound 3433, N-(4-(5-(difluoromethyl)-1,3,4-oxadiazol-2-yl)-2-fluorobenzyl)-3-fluoro-N-phenyl-1-propionylazetidine-3-carboxamide]	38500	448 fold	85.9
CC(=O)N1CC(F)(C(=O)N(Cc2ccc(-c3nnc(C(F)F)o3)cc2F)c2ccccc2)C1 [Compound 3432, 1-acetyl-N-(4-(5-(difluoromethyl)-1,3,4-oxadiazol-2-yl)-2-fluorobenzyl)-3-fluoro-N-phenylazetidine-3-carboxamide]	29100	366 fold	79.5
CC(C)N1CC(F)(C(=O)N(Cc2ccc(-c3nnc(C(F)F)o3)cn2)c2cccc(F)c2)C1 [Compound 3048, N-((5-(5-(difluoromethyl)-1,3,4-oxadiazol-2-yl)pyridin-2-yl)methyl)-3-fluoro-N-(3-fluorophenyl)-1-isopropylazetidine-3-carboxamide]	18500	237 fold	78
CN1CCC(N2CC(F)(C(=O)N(Cc3ccc(-c4nnc(C(F)F)o4)cn3)c3ccccc3)C2)CC1 [Compound 3110, N-((5-(5-(difluoromethyl)-1,3,4-oxadiazol-2-yl)pyridin-2-yl)methyl)-3-fluoro-1-(1-methylpiperidin-4-yl)-N-phenylazetidine-3-carboxamide]	> 50000	1,170 fold	42.7
CCC(=O)N1CCC(F)(C(=O)N(Cc2ccc(-c3nnc(C(F)F)o3)cc2F)c2ccccc2)CC1 [Compound 3439, N-(4-(5-(difluoromethyl)-1,3,4-oxadiazol-2-yl)-2-fluorobenzyl)-4-fluoro-N-phenyl-1-propionylpiperidine-4-carboxamide]	> 50000	238 fold	210
CC(C)N1CC(N2CCC(F)(C(=O)N(Cc3ccc(-c4nnc(C(F)F)o4)cn3)c3cccc(F)c3)CC2)C1 [Compound 3393, N-((5-(5-(difluoromethyl)-1,3,4-oxadiazol-2-yl)pyridin-2-yl)methyl)-4-fluoro-N-(3-fluorophenyl)-1-(1-isopropylazetidine-3-yl)piperidin-4-carboxamide]	> 50000	2,717 fold	18.4
CC(C)N1CCC(N2CC(F)(C(=O)N(Cc3ccc(-c4nnc(C(F)F)o4)cn3)c3cccc(F)c3)C2)CC1 [Compound 3404, N-((5-(5-(difluoromethyl)-1,3,4-oxadiazol-2-yl)pyridin-2-yl)methyl)-3-fluoro-N-(3-fluorophenyl)-1-(1-isopropylpiperidin-4-yl)azetidine-3-carboxamide]	25400	773 fold	32.9
O=C(N(Cc1ccc(-c2nnc(C(F)F)o2)cn1)c1cccc(F)c1)C1(F)CN(C2CCN(C3CCOC3)CC2)C1 (stereo not drawn) [Compound 3408, N-((5-(5-(difluoromethyl)-1,3,4-oxadiazol-2-yl)pyridin-2-yl)methyl)-3-fluoro-N-(3-fluorophenyl)-1-(1-(tetrahydrofuran-3-yl)piperidin-4-yl)azetidine-3-carboxamide]	37000	1,135 fold	32.6
O=C(N(Cc1ccc(-c2nnc(C(F)F)o2)cn1)c1cccc(F)c1)C1(F)CCN(C2COC2)CC1 [Compound 2972, N-((5-(5-(difluoromethyl)-1,3,4-oxadiazol-2-yl)pyridin-2-yl)methyl)-4-fluoro-N-(3-fluorophenyl)-1-(oxetan-3-yl)piperidine-4-carboxamide]	> 50000	1,190 fold	42
O=C(N(Cc1ccc(-c2nnc(C(F)F)o2)cn1)c1cccc(F)c1)C1(F)CN(C2CCOC2)C1 (stereo not drawn) [Compound 3052, N-((5-(5-(difluoromethyl)-1,3,4-oxadiazol-2-yl)pyridin-2-yl)methyl)-3-fluoro-N-(3-fluorophenyl)-1-(tetrahydrofuran-3-yl)azetidine-3-carboxamide]	> 50000	854 fold	58.5
